Measurements taken from US6727237B2, “Inhibitors of bacterial NAD synthetase” (priority 1998, dated 2004).
Where “and” joins values, the source holds several entries; their conditions need not be identical. Equal values may be shown once.

Key:
[1] = target: T1, bacterial NAD synthetase enzyme (Bacillus subtilis, UniProt P08164); test: biochemical; type: biochemical
T1 sequence (P08164 2-272 limits assumed): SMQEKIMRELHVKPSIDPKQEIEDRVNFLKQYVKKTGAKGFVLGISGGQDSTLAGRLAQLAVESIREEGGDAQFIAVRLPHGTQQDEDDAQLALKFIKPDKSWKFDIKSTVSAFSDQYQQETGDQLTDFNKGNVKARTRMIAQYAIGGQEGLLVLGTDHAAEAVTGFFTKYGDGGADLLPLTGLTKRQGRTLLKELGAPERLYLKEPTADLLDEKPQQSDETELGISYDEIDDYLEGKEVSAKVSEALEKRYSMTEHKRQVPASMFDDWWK

[2] = tested on: Staphylococcus epidermitis; test: Bacterial growth inhibition screen in LB media (absorbance 595 nm), percent inhibition; details: S. epidermitis
[3] = compound at 0.2 mM (Table 312A)

| SMILES | % Inhibition [1, 3] | % Inhibition ([2]; concentration screened 10 uM) | % Inhibition ([1]; compound at 0.1 mM (Table 314)) | % Inhibition ([2]; concentration screened 100 uM) |
| --- | --- | --- | --- | --- |
| CC(=O)c1ccc2[nH]c(CCCC[n+]3ccccc3)cc2c1 [Compound 367] | 9.72% | 5.64% and 5.22% |  |  |
| CC(=O)c1ccc2[nH]c(CCCCC[n+]3ccccc3)cc2c1 [Compound 368] |  |  | 21.10% | 91.36% |
| CC(=O)c1ccc2[nH]c(CCCCCC[n+]3ccccc3)cc2c1 [Compound 369] | 35.33% |  |  | 100.00% |
| COc1ccc2[nH]c(CCCC[n+]3ccccc3)cc2c1 [Compound 373] | 14.13% | 1.53% | 7.72% |  |
| COC(=O)c1ccc2[nH]c(CCCCC[n+]3ccccc3)cc2c1 [Compound 380] | 10.09% |  |  | 97.64% |
| O=C(O)c1ccc2[nH]c(CCCCC[n+]3ccccc3)cc2c1 [Compound 386] | 28.75% |  |  | 96.36% |
| O=C(O)c1ccc2[nH]c(CCCCCC[n+]3ccccc3)cc2c1 [Compound 387] |  |  | 29.97% | 97.64% |
| c1ccc2[nH]c(CCCCC[n+]3cccc4ccccc43)cc2c1 [Compound 392] | 10.89% | 9.61% |  |  |
| c1ccc2[nH]c(CCCCCCC[n+]3cccc4ccccc43)cc2c1 [Compound 394] | 4.62% | 7.03% |  |  |
| FC(F)(F)c1ccc2cc(CCC[n+]3cccc4ccccc43)[nH]c2c1 [Compound 396] |  | 1.53% | 3.64% |  |
| FC(F)(F)c1ccc2cc(CCCC[n+]3cccc4ccccc43)[nH]c2c1 [Compound 397] |  | 5.85% | 4.51% |  |
| Cc1ccc2[nH]c(CCCC[n+]3cccc4ccccc43)cc2c1 [Compound 403] | 5.07% | 4.87% |  |  |
| Cc1ccc2[nH]c(CCCCCC[n+]3cccc4ccccc43)cc2c1 [Compound 405] | 6.07% | 44.01% |  |  |
| Cc1ccc2[nH]c(CCCCCCC[n+]3cccc4ccccc43)cc2c1 [Compound 406] | 10.96% | 6.41% |  |  |
| Fc1cc(F)c2[nH]c(CCC[n+]3cccc4ccccc43)cc2c1 [Compound 408] | 7.04% | 1.88% |  |  |
| Fc1cc(F)c2[nH]c(CCCCCC[n+]3cccc4ccccc43)cc2c1 [Compound 411] | 8.84% | 15.74% |  |  |
| O=[N+]([O-])c1cc([N+](=O)[O-])c2[nH]c(CCCC[n+]3cccc4ccccc43)cc2c1 [Compound 415] | 7.72% | 1.95% |  |  |
| O=[N+]([O-])c1cc([N+](=O)[O-])c2[nH]c(CCCCCC[n+]3cccc4ccccc43)cc2c1 [Compound 417] | 14.59% | 7.80% |  |  |
| CCCCc1ccc2[nH]c(CCCCC[n+]3cccc4ccccc43)cc2c1 [Compound 422] | 16.23% | 9.82% |  |  |
| CCCCc1ccc2[nH]c(CCCCCC[n+]3cccc4ccccc43)cc2c1 [Compound 423] | 12.09% | 16.85% |  |  |

| SMILES | % Inhibition [1, 3] | % Inhibition ([2]; concentration screened 10 uM) | % Inhibition ([1]; compound at 0.1 mM (Table 314)) | % Inhibition ([2]; concentration screened 100 uM) |
| --- | --- | --- | --- | --- |
| CC(C)c1ccc2[nH]c(CCC[n+]3cccc4ccccc43)cc2c1 [Compound 426] |  | 16.57% | 5.49% |  |
| CC(C)c1ccc2[nH]c(CCCCC[n+]3cccc4ccccc43)cc2c1 [Compound 428] | 26.53% | 5.85% |  |  |
| CC(C)c1ccc2[nH]c(CCCCCC[n+]3cccc4ccccc43)cc2c1 [Compound 429] | 13.01% | 3.06% |  |  |
| CC(C)c1ccc2[nH]c(CCCCCCCC[n+]3cccc4ccccc43)cc2c1 [Compound 431] | 10.77% | 22.28% |  |  |
| c1ccc(-c2ccc3[nH]c(CCC[n+]4cccc5ccccc54)cc3c2)cc1 [Compound 432] | 13.21% | 8.91% |  |  |
| c1ccc(-c2ccc3[nH]c(CCCCC[n+]4cccc5ccccc54)cc3c2)cc1 [Compound 434] | 5.36% | 5.64% |  |  |
| c1ccc(-c2ccc3[nH]c(CCCCCCCC[n+]4cccc5ccccc54)cc3c2)cc1 [Compound 437] | 6.91% | 11.84% |  |  |
| O=[N+]([O-])c1ccc2[nH]c(CCC[n+]3cccc4ccccc43)cc2c1 [Compound 438] | 9.45% | 5.29% |  |  |
| O=[N+]([O-])c1ccc2[nH]c(CCCC[n+]3cccc4ccccc43)cc2c1 [Compound 439] |  | 30.57% | 2.57% |  |
| O=[N+]([O-])c1ccc2[nH]c(CCCCC[n+]3cccc4ccccc43)cc2c1 [Compound 440] | 12.69% | 8.77% |  |  |
| O=[N+]([O-])c1ccc2[nH]c(CCCCCCCC[n+]3cccc4ccccc43)cc2c1 [Compound 443] | 5.51% | 7.66% |  |  |
| c1ccc(C(c2ccccc2)(c2ccccc2)c2ccc3[nH]c(CCC[n+]4cccc5ccccc54)cc3c2)cc1 [Compound 444] |  | 5.85% | 8.55% |  |
| c1ccc(C(c2ccccc2)(c2ccccc2)c2ccc3[nH]c(CCCC[n+]4cccc5ccccc54)cc3c2)cc1 [Compound 445] | 5.43% | 11.21% |  |  |
| c1ccc(C(c2ccccc2)(c2ccccc2)c2ccc3[nH]c(CCCCC[n+]4cccc5ccccc54)cc3c2)cc1 [Compound 446] | 13.78% | 3.69% |  |  |
| c1ccc(C(c2ccccc2)(c2ccccc2)c2ccc3[nH]c(CCCCCCCC[n+]4cccc5ccccc54)cc3c2)cc1 [Compound 449] | 8.67% | 7.73% |  |  |
| Fc1ccc2[nH]c(CCC[n+]3cccc4ccccc43)cc2c1 [Compound 450] | 7.90% | 7.45% |  |  |
| Fc1ccc2[nH]c(CCCC[n+]3cccc4ccccc43)cc2c1 [Compound 451] |  | 5.57% | 2.94% |  |
| Fc1ccc2[nH]c(CCCCC[n+]3cccc4ccccc43)cc2c1 [Compound 452] | 20.04% | 8.22% |  |  |
| Fc1ccc2[nH]c(CCCCCCCC[n+]3cccc4ccccc43)cc2c1 [Compound 455] | 2.69% | 6.55% |  |  |
| c1ccc(Oc2ccc3[nH]c(CCCC[n+]4cccc5ccccc54)cc3c2)cc1 [Compound 457] | 3.31% | 4.67% |  |  |

| SMILES | % Inhibition [1, 3] | % Inhibition ([2]; concentration screened 10 uM) | % Inhibition ([1]; compound at 0.1 mM (Table 314)) | % Inhibition ([2]; concentration screened 100 uM) |
| --- | --- | --- | --- | --- |
| c1ccc(Oc2ccc3[nH]c(CCCCC[n+]4cccc5ccccc54)cc3c2)cc1 [Compound 458] | 15.72% | 22.77% |  |  |
| O=C(c1ccccc1)c1ccc2[nH]c(CCC[n+]3cccc4ccccc43)cc2c1 [Compound 462] | 3.84% | 3.13% |  |  |
| O=C(c1ccccc1)c1ccc2[nH]c(CCCCC[n+]3cccc4ccccc43)cc2c1 [Compound 464] | 13.50% | 35.45% |  |  |
| O=C(c1ccccc1)c1ccc2[nH]c(CCCCCC[n+]3cccc4ccccc43)cc2c1 [Compound 465] | 7.92% | 8.08% |  |  |
| CC(=O)c1ccc2[nH]c(CCCCC[n+]3cccc4ccccc43)cc2c1 [Compound 476] | 17.49% | 11.14% |  |  |
| CC(=O)c1ccc2[nH]c(CCCCCC[n+]3cccc4ccccc43)cc2c1 [Compound 477] | 10.15% | 3.69% |  |  |
| COc1ccc2[nH]c(CCCCC[n+]3cccc4ccccc43)cc2c1 [Compound 482] | 17.07% | 4.39% |  |  |
| COC(=O)c1ccc2[nH]c(CCC[n+]3cccc4ccccc43)cc2c1 [Compound 486] | 4.97% | 22.28% |  |  |
| COC(=O)c1ccc2[nH]c(CCCCC[n+]3cccc4ccccc43)cc2c1 [Compound 488] | 17.65% | 2.72% |  |  |
| COC(=O)c1ccc2[nH]c(CCCCCCCC[n+]3cccc4ccccc43)cc2c1 [Compound 491] | 8.24% | 11.14% |  |  |
| O=C(O)c1ccc2[nH]c(CCC[n+]3cccc4ccccc43)cc2c1 [Compound 492] | 2.59% | 11.00% |  |  |
| c1ccc2c[n+](CCCCCCc3cc4ccccc4[nH]3)ccc2c1 [Compound 501] | 4.98% |  |  | 7.93% |
| c1ccc2c[n+](CCCCCCCCc3cc4ccccc4[nH]3)ccc2c1 [Compound 503] | 37.04% | 7.82% |  |  |
| FC(F)(F)c1ccc2cc(CCCCC[n+]3ccc4ccccc4c3)[nH]c2c1 [Compound 506] | 21.74% |  |  | 98.64% |
| FC(F)(F)c1ccc2cc(CCCCCC[n+]3ccc4ccccc4c3)[nH]c2c1 [Compound 507] | 26.18% |  |  | 15.86% |
| Cc1ccc2[nH]c(CCCCCC[n+]3ccc4ccccc4c3)cc2c1 [Compound 513] | 23.66% |  |  | 17.86% |
| Fc1cc(F)c2[nH]c(CCCCCC[n+]3ccc4ccccc4c3)cc2c1 [Compound 519] | 16.27% | 11.35% |  |  |
| O=[N+]([O-])c1cc([N+](=O)[O-])c2[nH]c(CCCCC[n+]3ccc4ccccc4c3)cc2c1 [Compound 524] | 30.81% |  |  | 99.57% |
| CCCCc1ccc2[nH]c(CCCC[n+]3ccc4ccccc4c3)cc2c1 [Compound 529] | 15.50% | 10.15% |  |  |
| CCCCc1ccc2[nH]c(CCCCC[n+]3ccc4ccccc4c3)cc2c1 [Compound 530] | 20.52% |  |  | 27.36% |
